System: NCI-H1341 complex spheroids, percent test/control
Assay: Anticancer human tumor NCI-H1341 cell line growth inhibition [AhR];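 also: spheroids exposed to agents for seven days before readout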
Settings: for IC50: curve of first compound; for viability, T/C: stronger effect = lower value
In short: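 Spheroids combined tumor cells with HUVEC endothelial cells and human MSCs as stroma. AhR antagonists were paired with standard or investigational drugs, each dosed in half-log steps down from near clinical Cmax, or from 10 microM where Cmax was unknown.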

[1] = second compound 0.1 µM, first compound 0.0316 µM
[2] = second compound 0.1 µM, first compound 0.1 µM
[3] = second compound 0.1 µM, first compound 0.316 µM
[4] = second compound 0.1 µM, first compound 1 µM
[5] = second compound 0.1 µM, first compound 3.16 µM
[6] = second compound 0.1 µM, first compound 10 µM
[7] = second compound 0.316 µM, first compound 0.0316 µM
[8] = second compound 0.316 µM, first compound 0.1 µM
[9] = second compound 0.316 µM, first compound 0.316 µM
[10] = second compound 0.316 µM, first compound 1 µM
[11] = second compound 0.316 µM, first compound 3.16 µM
[12] = second compound 0.316 µM, first compound 10 µM
[13] = second compound 1 µM, first compound 0.0316 µM
[14] = second compound 1 µM, first compound 0.1 µM
[15] = second compound 1 µM, first compound 0.316 µM
[16] = second compound 1 µM, first compound 1 µM
[17] = second compound 1 µM, first compound 3.16 µM
[18] = second compound 1 µM, first compound 10 µM
[19] = second compound 3.16 µM, first compound 0.0316 µM
[20] = second compound 3.16 µM, first compound 0.1 µM
[21] = second compound 3.16 µM, first compound 0.316 µM
[22] = second compound 3.16 µM, first compound 1 µM
[23] = second compound 3.16 µM, first compound 3.16 µM
[24] = second compound 3.16 µM, first compound 10 µM
[25] = second compound 10 µM, first compound 0.0316 µM
[26] = second compound 10 µM, first compound 0.1 µM
[27] = second compound 10 µM, first compound 0.316 µM
[28] = second compound 10 µM, first compound 1 µM
[29] = second compound 10 µM, first compound 3.16 µM
[30] = second compound 10 µM, first compound 10 µM

Row | Structure (SMILES) | IC50 (second compound 0.1 µM) | IC50 (second compound 0.316 µM) | IC50 (second compound 1 µM) | IC50 (second compound 3.16 µM) | IC50 (second compound 10 µM) | viability, T/C [1] | viability, T/C [2] | viability, T/C [3] | viability, T/C [4] | viability, T/C [7] | viability, T/C [8] | viability, T/C [9] | viability, T/C [10] | viability, T/C [13] | viability, T/C [14] | viability, T/C [15] | viability, T/C [16] | viability, T/C [19] | viability, T/C [20] | viability, T/C [21] | further results
1 | CC(C)c1c(-c2ccccc2)nc2c(C#N)c[nH]n2c1=O + Cc1cncc(-c2nc(NCCc3c[nH]c4ccccc34)c3ncn(C(C)C)c3n2)c1 | > 10000 nM | > 10000 nM | > 10000 nM | > 10000 nM | < 31.6 nM | 90.7% | 83.7% | 86.6% | 81.3% | 75.5% | 87.2% | 95.5% | 75.1% | 75.9% | 78.6% | 78.5% | 75.3% | 79.9% | 73.6% | 74.6% | viability, T/C [5]: 69.6%; viability, T/C [6]: 58%; viability, T/C [11]: 75.8%; viability, T/C [12]: 72.5%; viability, T/C [17]: 78.9%; viability, T/C [18]: 68%; viability, T/C [22]: 67.6%; viability, T/C [23]: 63.5%; viability, T/C [24]: 67.4%; viability, T/C [25]: 18%; viability, T/C [26]: 20.1%; viability, T/C [27]: 21%; viability, T/C [28]: 20.2%; viability, T/C [29]: 16.2%; viability, T/C [30]: 19.5%
2 | CC1COCCN1c1cc(-c2ccnn2C)c2ccnc(-c3ccn[nH]3)c2n1 (stereo not given) + Cc1cncc(-c2nc(NCCc3c[nH]c4ccccc34)c3ncn(C(C)C)c3n2)c1 | 41.3 nM | 31.5 nM | 35.4 nM | 31 nM | < 3.16 nM | 57.8% | 25.1% | 25.7% | 17.8% | 49.8% | 26.8% | 19.8% | 18.7% | 51.6% | 26.8% | 23.9% | 16.7% | 50% | 32.1% | 24.8% | viability, T/C (second compound 0.1 µM, first compound 0.00316 µM): 95.1%; viability, T/C (second compound 0.1 µM, first compound 0.01 µM): 97%; viability, T/C (second compound 0.316 µM, first compound 0.00316 µM): 79.9%; viability, T/C (second compound 0.316 µM, first compound 0.01 µM): 94.4%; viability, T/C (second compound 1 µM, first compound 0.00316 µM): 77.5%; viability, T/C (second compound 1 µM, first compound 0.01 µM): 79.4%; viability, T/C (second compound 3.16 µM, first compound 0.00316 µM): 76%; viability, T/C (second compound 3.16 µM, first compound 0.01 µM): 66.2%; viability, T/C [22]: 16.9%; viability, T/C (second compound 10 µM, first compound 0.00316 µM): 21%; viability, T/C (second compound 10 µM, first compound 0.01 µM): 19%; viability, T/C [25]: 16.5%; viability, T/C [26]: 15.2%; viability, T/C [27]: 12.2%; viability, T/C [28]: 10.1%
3 | COc1ccc([C@@H](O)c2cc(-c3ncnc4cc(N5CCOCC5)ccc34)c(F)cc2Cl)nn1 + Cc1cncc(-c2nc(NCCc3c[nH]c4ccccc34)c3ncn(C(C)C)c3n2)c1 | 1080 nM | 592 nM | 687 nM | 365 nM | < 31.6 nM | 83.7% | 75.9% | 75.9% | 49.9% | 76.3% | 69.3% | 59.9% | 42.6% | 68% | 62.3% | 61.8% | 44.6% | 71.8% | 67.6% | 46% | viability, T/C [5]: 24.6%; viability, T/C [6]: 5.31%; viability, T/C [11]: 20.3%; viability, T/C [12]: 5.39%; viability, T/C [17]: 17.4%; viability, T/C [18]: 5.3%; viability, T/C [22]: 42.1%; viability, T/C [23]: 16.2%; viability, T/C [24]: 4.69%; viability, T/C [25]: 18.4%; viability, T/C [26]: 16.3%; viability, T/C [27]: 13.7%; viability, T/C [28]: 7.45%; viability, T/C [29]: 5.7%; viability, T/C [30]: 3.93%

— PubChem BioAssay AID1919014 (Molecular Pharmacology Branch, DTP, NCI, 2023)
